The target of the experiment is T1, GABA-A receptor; alpha-3/beta-3/gamma-2 (Homo sapiens, UniProt P18507+P28472+P34903).
T1 sequence (P18507 whole entry): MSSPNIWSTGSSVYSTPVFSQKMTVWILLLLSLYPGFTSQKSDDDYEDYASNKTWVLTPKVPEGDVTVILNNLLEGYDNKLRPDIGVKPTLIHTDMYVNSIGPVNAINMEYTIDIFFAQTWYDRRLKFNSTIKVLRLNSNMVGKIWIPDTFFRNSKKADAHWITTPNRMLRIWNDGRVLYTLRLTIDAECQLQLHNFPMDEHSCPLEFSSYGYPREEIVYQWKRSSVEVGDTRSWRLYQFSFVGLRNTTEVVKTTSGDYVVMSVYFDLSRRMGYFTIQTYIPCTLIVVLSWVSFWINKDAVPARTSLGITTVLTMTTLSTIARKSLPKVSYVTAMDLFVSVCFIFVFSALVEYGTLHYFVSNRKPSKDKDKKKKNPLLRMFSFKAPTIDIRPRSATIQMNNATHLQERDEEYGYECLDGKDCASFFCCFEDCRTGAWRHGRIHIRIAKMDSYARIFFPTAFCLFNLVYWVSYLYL
T1 sequence (P28472 whole entry): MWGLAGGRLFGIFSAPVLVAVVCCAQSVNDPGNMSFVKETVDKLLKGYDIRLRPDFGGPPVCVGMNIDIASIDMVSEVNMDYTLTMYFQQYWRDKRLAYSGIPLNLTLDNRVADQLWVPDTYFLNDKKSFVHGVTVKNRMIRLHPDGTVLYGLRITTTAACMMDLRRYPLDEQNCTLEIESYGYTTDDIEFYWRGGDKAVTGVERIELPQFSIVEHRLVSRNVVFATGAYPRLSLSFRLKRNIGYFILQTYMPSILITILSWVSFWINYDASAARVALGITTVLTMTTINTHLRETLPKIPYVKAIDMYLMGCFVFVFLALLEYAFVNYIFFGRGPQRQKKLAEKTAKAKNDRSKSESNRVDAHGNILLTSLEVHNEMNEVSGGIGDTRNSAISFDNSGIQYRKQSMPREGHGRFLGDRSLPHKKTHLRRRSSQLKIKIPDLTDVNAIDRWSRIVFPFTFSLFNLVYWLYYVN
T1 sequence (P34903 whole entry): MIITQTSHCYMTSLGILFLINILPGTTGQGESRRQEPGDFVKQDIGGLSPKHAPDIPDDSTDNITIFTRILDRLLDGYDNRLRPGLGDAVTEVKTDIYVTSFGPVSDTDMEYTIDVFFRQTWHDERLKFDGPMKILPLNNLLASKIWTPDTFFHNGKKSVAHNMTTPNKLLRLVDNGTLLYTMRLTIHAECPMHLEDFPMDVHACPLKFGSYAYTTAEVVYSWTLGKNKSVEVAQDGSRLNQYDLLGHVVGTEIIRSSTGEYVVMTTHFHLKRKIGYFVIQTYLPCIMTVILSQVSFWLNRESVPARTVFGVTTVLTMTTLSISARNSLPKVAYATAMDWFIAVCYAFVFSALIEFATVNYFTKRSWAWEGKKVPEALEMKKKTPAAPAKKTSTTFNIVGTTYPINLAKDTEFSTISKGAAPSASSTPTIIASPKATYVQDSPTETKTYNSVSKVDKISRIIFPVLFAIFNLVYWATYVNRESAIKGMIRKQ
The experiment in a line: Modulation of recombinant human GABA alpha3beta3gamma2 receptor expressed in HEK293 cells assessed as change in GABA-induced current at -80 mV holding potential preincubated for 3 mins followed by co-administration of GABA by electrophysiology method. The format is cell-based.

SMILES strings stand for the structures. pEC50: −log10 of the molar value.

Consider `C#Cc1ccc2c(c1)C(c1ccccn1)=NCc1c(-c3cnco3)ncn1-2`, for which the negative logarithm of the EC50 (pEC50) (in general, the negative decadic logarithm of the EC50, by convention in mol/L) was 6.69.

Source of the values: ChEMBL document CHEMBL4041524, “Synthesis and Characterization of a Novel γ-Aminobutyric Acid Type A (GABAA) Receptor Ligand That Combines Outstanding Metabolic Stability, Pharmacokinetics, and Anxiolytic Efficacy” (J Med Chem, 2016).
